≈ marks a conversion by molar mass, not a printed value. Like-named read-outs stand apart in the source and are kept apart here.
What was measured:
[1] = test system: National Cancer Institute's panel of 60 human tumor cell lines; conditions: mean over NCI panel of 60 human tumor cell lines; cited from earlier work
HCT-116 Colon = experiment: tumor cell growth inhibitory activity, HCT-116 colon; format: cell-based, human; conditions: for IC50: Homo sapiens
Method: (§1) Compounds of the invention were assayed for tumor cell growth inhibitory activity, in parallel with (+) phorboxazole A (1) hemi-phorboxazole A (3).

C. albicans ACTCC 14503 = experiment: antifungal microbroth dilution assay, C. albicans ACTCC 14503; format: cell-based, Candida albicans; conditions: for MIC: Candida albicans
Method: (§2) Tests of antifungal activity in microbroth dilution assay against pathogenic Candida strains was performed according to known methods. (National Committee for Clinical Laboratory Standards, 2002. Reference method for broth dilution antifungal susceptibility testing of yeast, 2nd ed. Approved standard M27-A2. National Committee for Clinical Laboratory Standards, Wayne, Pa.). For strains see: Mulder, R. J.; Shafer, C. M.; Dalisay, D. S.; Molinski, T. F. Bioorg. Med. Chem. Lett. 2009, 19, 2928-2930.

C. albicans UCD-FR1 = experiment: antifungal microbroth dilution assay, C. albicans UCD-FR1; format: cell-based, Candida albicans; conditions: for MIC: Candida albicans
Method: as §2

C. albicans 96-489 = experiment: antifungal microbroth dilution assay, C. albicans 96-489; format: cell-based, Candida albicans
Method: as §2

SK-BR-3 Breast = experiment: tumor cell growth inhibitory activity, SK-BR-3 breast; format: cell-based, human; conditions: for IC50: Homo sapiens
Method: as §1

[2] = Table 6, HCT-116 colon tumor cells
[3] = Table 5, HCT-116 colon tumor cells
[4] = Table 6, SK-BR-3 breast tumor cells

| Structure (SMILES) | HCT-116 Colon IC50 (HCT-116 Colon; [2]) [µg/mL] | C. albicans ACTCC 14503 MIC (C. albicans ACTCC 14503; Table 8, microbroth dilution) [µg/mL] | C. albicans UCD-FR1 MIC (C. albicans UCD-FR1; Table 8, microbroth dilution) [µg/mL] | C. albicans 96-489 MIC (C. albicans 96-489; Table 8, microbroth dilution) [µg/mL] | further results |
| --- | --- | --- | --- | --- | --- |
| C=C1C[C@@H]2C[C@H]3C[C@@H](O)C[C@H](O3)c3coc(n3)/C=C\C[C@H]3O[C@@H](/C(C)=C/c4coc(C[C@]5(O)C[C@H](OC)C[C@H]([C@H](O)/C=C(C)/C=C/[C@@H](C/C=C/Br)OC)O5)n4)[C@H](C)[C@@H](OC(=O)/C=C\C[C@@H](C1)O2)[C@H]3C [Compound 2, Phorboxazole B] |  |  |  |  | GI50 [1]: 1.58 nM |
| C=C1C[C@@H]2C[C@@H]3CCO[C@@H](O3)c3cccc(c3)/C=C/C[C@H]3O[C@@H](/C(C)=C/c4ncco4)[C@H](C)[C@@H](OC(=O)/C=C\C[C@@H](C1)O2)[C@H]3C [Compound 27] | 5.44 | 4 | 8 | 32 |  |
| C=C1C[C@@H]2C[C@@H]3CCO[C@@H](O3)c3cccc(c3)/C=C/C[C@H]3O[C@@H](/C(C)=C/c4cccs4)[C@H](C)[C@@H](OC(=O)/C=C\C[C@@H](C1)O2)[C@H]3C [Compound 28] | 5.96 | 8 | 16 | 32 |  |
| C=C1C[C@@H]2C[C@@H]3CCO[C@@H](O3)c3coc(n3)/C=C/C[C@H]3O[C@@H](/C(C)=C/C#N)[C@H](C)[C@@H](OC(=O)/C=C/C[C@@H](C1)O2)[C@H]3C [Compound (E, E)-5] |  |  |  |  | HCT-116 Colon IC50 (HCT-116 Colon; [3]): 1.54 µg/mL; C. albicans ACTCC 14503 MIC (C. albicans ACTCC 14503; Table 7, microbroth dilution): 4 µg/mL; C. albicans UCD-FR1 MIC (C. albicans UCD-FR1; Table 7, microbroth dilution): 8 µg/mL; C. albicans 96-489 MIC (C. albicans 96-489; Table 7, microbroth dilution): 32 µg/mL |
| C=C1C[C@@H]2C[C@@H]3CCO[C@@H](O3)c3cccc(c3)/C=C/C[C@H]3O[C@@H](/C(C)=C/C#N)[C@H](C)[C@@H](OC(=O)/C=C/C[C@@H](C1)O2)[C@H]3C [Compound (E, E)-6] | >6.25 | >64 | >64 | >64 |  |
| C=C1C[C@@H]2C[C@@H]3CCO[C@@H](O3)c3coc(n3)/C=C/C[C@H]3O[C@@H](/C(C)=C/I)[C@H](C)[C@@H](OC(=O)/C=C/C[C@@H](C1)O2)[C@H]3C [Compound (E, E)-15] |  |  |  |  | HCT-116 Colon IC50 (HCT-116 Colon; [3]): >6.25 µg/mL; C. albicans ACTCC 14503 MIC (C. albicans ACTCC 14503; Table 7, microbroth dilution): >64 µg/mL; C. albicans UCD-FR1 MIC (C. albicans UCD-FR1; Table 7, microbroth dilution): >64 µg/mL; C. albicans 96-489 MIC (C. albicans 96-489; Table 7, microbroth dilution): >64 µg/mL |
| C=C1C[C@@H]2C[C@@H]3CCO[C@@H](O3)c3cccc(c3)/C=C/C[C@H]3O[C@@H](/C(C)=C/I)[C@H](C)[C@@H](OC(=O)/C=C/C[C@@H](C1)O2)[C@H]3C [Compound (E, E)-24] | >6.25 | >64 | >64 | >64 |  |
| C=C1C[C@@H]2C[C@@H]3CCO[C@@H](O3)c3cccc(c3)/C=C\C[C@H]3O[C@@H](/C(C)=C/C#N)[C@H](C)[C@@H](OC(=O)/C=C/C[C@@H](C1)O2)[C@H]3C [Compound (E, Z)-6] | >6.25 | >64 | >64 | >64 |  |
| C=C1C[C@@H]2C[C@@H]3CCO[C@@H](O3)c3cccc(c3)/C=C\C[C@H]3O[C@@H](/C(C)=C/I)[C@H](C)[C@@H](OC(=O)/C=C/C[C@@H](C1)O2)[C@H]3C [Compound (E, Z)-24] | >6.25 | >64 | >64 | >64 |  |
| C=C1C[C@@H]2C[C@@H]3CCO[C@@H](O3)c3coc(n3)/C=C/C[C@H]3O[C@@H](/C(C)=C/C#N)[C@H](C)[C@@H](OC(=O)/C=C\C[C@@H](C1)O2)[C@H]3C [Compound (Z, E)-5] |  |  |  |  | HCT-116 Colon IC50 (HCT-116 Colon; [3]): >6.2 µg/mL; SK-BR-3 Breast IC50 (SK-BR-3 Breast; Table 5, SK-BR-3 breast tumor cells): >6.2 µg/mL; C. albicans ACTCC 14503 MIC (C. albicans ACTCC 14503; Table 7, microbroth dilution): 16 µg/mL; C. albicans UCD-FR1 MIC (C. albicans UCD-FR1; Table 7, microbroth dilution): 16 µg/mL; C. albicans 96-489 MIC (C. albicans 96-489; Table 7, microbroth dilution): >64 µg/mL |
| C=C1C[C@@H]2C[C@@H]3CCO[C@@H](O3)c3cccc(c3)/C=C/C[C@H]3O[C@@H](/C(C)=C/C#N)[C@H](C)[C@@H](OC(=O)/C=C\C[C@@H](C1)O2)[C@H]3C [Compound (Z, E)-6] | 0.207 |  |  |  | SK-BR-3 Breast IC50 (SK-BR-3 Breast; [4]): 0.258 µg/mL |
| C=C1C[C@@H]2C[C@@H]3CCO[C@@H](O3)c3coc(n3)/C=C/C[C@H]3O[C@@H](/C(C)=C/I)[C@H](C)[C@@H](OC(=O)/C=C\C[C@@H](C1)O2)[C@H]3C [Compound (Z, E)-15] |  |  |  |  | HCT-116 Colon IC50 (HCT-116 Colon; [3]): >6.25 µg/mL; C. albicans ACTCC 14503 MIC (C. albicans ACTCC 14503; Table 7, microbroth dilution): >64 µg/mL; C. albicans UCD-FR1 MIC (C. albicans UCD-FR1; Table 7, microbroth dilution): >64 µg/mL; C. albicans 96-489 MIC (C. albicans 96-489; Table 7, microbroth dilution): >64 µg/mL |
| C=C1C[C@@H]2C[C@@H]3CCO[C@@H](O3)c3cccc(c3)/C=C/C[C@H]3O[C@@H](/C(C)=C/I)[C@H](C)[C@@H](OC(=O)/C=C\C[C@@H](C1)O2)[C@H]3C [Compound (Z, E)-24] | >6.25 | >64 | >64 | >64 |  |
| C=C1C[C@@H]2C[C@@H]3C[C@@H](O)C[C@@H](O3)c3coc(n3)/C=C/C[C@H]3O[C@@H](/C(C)=C/C#N)[C@H](C)[C@@H](OC(=O)/C=C\C[C@@H](C1)O2)[C@H]3C [HEMI-PHORBOXAZOLE A, Hemi-Phorboxazole A] | >6.2 | >64 | >64 | >64 | IC50 (HCT-116 Colon; HCT-116, read-out: HCT-116 Colon IC50): > 6.2 µg/mL; IC50 (SK-BR-3 Breast; SK-BR-3, read-out: SK-BR-3 Breast IC50): > 6.2 µg/mL; SK-BR-3 Breast IC50 (SK-BR-3 Breast; [4]): >6.2 µg/mL; MIC (C. albicans ACTCC 14503; ACTCC14503, read-out: C. albicans ACTCC 14503 MIC): > 64 µg/mL; MIC (C. albicans UCD-FR1; UCDFR1, read-out: C. albicans UCD-FR1 MIC): > 64 µg/mL; MIC (C. albicans 96-489; Candida albicans, 96489, read-out: C. albicans 96-489 MIC): > 64 µg/mL |
| C=C1C[C@@H]2C[C@@H]3C[C@@H](O)C[C@@H](O3)c3coc(n3)/C=C/C[C@H]3O[C@@H](/C(C)=C/c4coc(C[C@]5(O)C[C@H](OC)C[C@H]([C@H](O)/C=C(C)/C=C/[C@@H](C/C=C/Br)OC)O5)n4)[C@H](C)[C@@H](OC(=O)/C=C\C[C@@H](C1)O2)[C@H]3C [Phorboxazole A] | 0.00071 | 1.0 | 2.0 | 1.0 | IC50 (HCT-116 Colon; Table 5, HCT-116 colon tumor cells, read-out: HCT-116 Colon IC50): 0.00071 µg/mL (≈ 0.000693 µM); IC50 (SK-BR-3 Breast; Table 5, SK-BR-3 breast tumor cells, read-out: SK-BR-3 Breast IC50): 0.002 µg/mL (≈ 0.00195 µM); MIC (C. albicans ACTCC 14503; ACTCC14503, Table 7, microbroth dilution, read-out: C. albicans ACTCC 14503 MIC): 1 µg/mL (≈ 0.977 µM); MIC (C. albicans UCD-FR1; UCDFR1, Table 7, microbroth dilution, read-out: C. albicans UCD-FR1 MIC): 2 µg/mL (≈ 1.95 µM); MIC (C. albicans 96-489; Candida albicans, 96489, Table 7, microbroth dilution, read-out: C. albicans 96-489 MIC): 1 µg/mL (≈ 0.977 µM); GI50 [1]: 1.58 nM |

Source: patent US8957097B2, “Hemi-phorboxazole A derivatives and methods of their use” (The Trustees Of The University Of Pennsylvania, priority 2009, dated 2015)
